≈ marks a conversion by molar mass, not a printed value. Values belong to the compound of their own block, whether it stands above or below them.
What was measured:
[1] = biological target: T1, Pyruvate kinase PKLR (Homo sapiens, UniProt P30613); experiment: Activation of PKR (unknown origin)
[2] = biological target: T1, Pyruvate kinase PKLR; experiment: Activation of PKR (unknown origin) by differential scanning fluorimetry analysis
[3] = biological target: T2, aromatase (Homo sapiens, UniProt P11511); experiment: Inhibition of aromatase (unknown origin) at 10 uM relative to control
T2 sequence (P11511 whole entry): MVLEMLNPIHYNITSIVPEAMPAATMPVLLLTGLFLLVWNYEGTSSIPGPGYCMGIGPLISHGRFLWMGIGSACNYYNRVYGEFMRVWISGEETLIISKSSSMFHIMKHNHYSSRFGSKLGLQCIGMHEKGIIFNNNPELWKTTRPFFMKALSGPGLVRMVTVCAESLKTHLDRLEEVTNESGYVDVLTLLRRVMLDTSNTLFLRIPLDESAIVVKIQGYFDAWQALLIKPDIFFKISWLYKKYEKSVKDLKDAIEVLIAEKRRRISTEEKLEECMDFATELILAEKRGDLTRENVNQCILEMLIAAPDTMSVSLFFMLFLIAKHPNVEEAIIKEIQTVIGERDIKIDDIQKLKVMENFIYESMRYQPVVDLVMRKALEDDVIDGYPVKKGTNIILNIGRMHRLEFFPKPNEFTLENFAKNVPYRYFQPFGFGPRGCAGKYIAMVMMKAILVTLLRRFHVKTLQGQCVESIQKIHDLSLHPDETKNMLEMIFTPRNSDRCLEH

[4] = Half life in rat at 10 mg/kg, po; format: ADME, organism-based; settings: in vivo
[5] = Solubility of the compound; format: physicochemical
[6] = biological target: Voltage-gated inwardly rectifying potassium channel KCNH2 (Homo sapiens, UniProt Q12809); experiment: Inhibition of human ERG at >50 uM; format: toxicity
[7] = AUC in rat at 10 mg/kg, po; format: ADME, organism-based; settings: in vivo
[8] = Genotoxicity in Salmonella typhimurium; format: toxicity; settings: salmonella enterica subsp. enterica serovar typhimurium
[9] = Permeability of the compound across apical to basolateral side; format: ADME; settings: not told; read-out: permeability

T1 sequence (P30613 whole entry): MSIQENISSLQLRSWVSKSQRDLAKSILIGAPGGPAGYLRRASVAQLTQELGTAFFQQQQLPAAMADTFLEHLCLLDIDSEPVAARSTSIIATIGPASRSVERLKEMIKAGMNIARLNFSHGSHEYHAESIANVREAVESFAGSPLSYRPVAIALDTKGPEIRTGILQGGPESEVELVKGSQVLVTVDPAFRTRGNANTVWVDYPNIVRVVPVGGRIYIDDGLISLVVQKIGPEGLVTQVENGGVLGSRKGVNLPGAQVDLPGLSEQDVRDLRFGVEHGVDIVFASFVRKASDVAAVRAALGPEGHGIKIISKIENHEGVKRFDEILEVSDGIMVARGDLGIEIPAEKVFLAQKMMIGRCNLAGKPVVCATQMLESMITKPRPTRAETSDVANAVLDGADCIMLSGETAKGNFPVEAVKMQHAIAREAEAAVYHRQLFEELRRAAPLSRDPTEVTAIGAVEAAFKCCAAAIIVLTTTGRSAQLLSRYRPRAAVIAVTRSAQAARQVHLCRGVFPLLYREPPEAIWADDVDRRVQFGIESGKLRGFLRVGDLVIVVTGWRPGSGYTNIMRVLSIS
Sequence of Voltage-gated inwardly rectifying potassium channel KCNH2 (Q12809 whole entry): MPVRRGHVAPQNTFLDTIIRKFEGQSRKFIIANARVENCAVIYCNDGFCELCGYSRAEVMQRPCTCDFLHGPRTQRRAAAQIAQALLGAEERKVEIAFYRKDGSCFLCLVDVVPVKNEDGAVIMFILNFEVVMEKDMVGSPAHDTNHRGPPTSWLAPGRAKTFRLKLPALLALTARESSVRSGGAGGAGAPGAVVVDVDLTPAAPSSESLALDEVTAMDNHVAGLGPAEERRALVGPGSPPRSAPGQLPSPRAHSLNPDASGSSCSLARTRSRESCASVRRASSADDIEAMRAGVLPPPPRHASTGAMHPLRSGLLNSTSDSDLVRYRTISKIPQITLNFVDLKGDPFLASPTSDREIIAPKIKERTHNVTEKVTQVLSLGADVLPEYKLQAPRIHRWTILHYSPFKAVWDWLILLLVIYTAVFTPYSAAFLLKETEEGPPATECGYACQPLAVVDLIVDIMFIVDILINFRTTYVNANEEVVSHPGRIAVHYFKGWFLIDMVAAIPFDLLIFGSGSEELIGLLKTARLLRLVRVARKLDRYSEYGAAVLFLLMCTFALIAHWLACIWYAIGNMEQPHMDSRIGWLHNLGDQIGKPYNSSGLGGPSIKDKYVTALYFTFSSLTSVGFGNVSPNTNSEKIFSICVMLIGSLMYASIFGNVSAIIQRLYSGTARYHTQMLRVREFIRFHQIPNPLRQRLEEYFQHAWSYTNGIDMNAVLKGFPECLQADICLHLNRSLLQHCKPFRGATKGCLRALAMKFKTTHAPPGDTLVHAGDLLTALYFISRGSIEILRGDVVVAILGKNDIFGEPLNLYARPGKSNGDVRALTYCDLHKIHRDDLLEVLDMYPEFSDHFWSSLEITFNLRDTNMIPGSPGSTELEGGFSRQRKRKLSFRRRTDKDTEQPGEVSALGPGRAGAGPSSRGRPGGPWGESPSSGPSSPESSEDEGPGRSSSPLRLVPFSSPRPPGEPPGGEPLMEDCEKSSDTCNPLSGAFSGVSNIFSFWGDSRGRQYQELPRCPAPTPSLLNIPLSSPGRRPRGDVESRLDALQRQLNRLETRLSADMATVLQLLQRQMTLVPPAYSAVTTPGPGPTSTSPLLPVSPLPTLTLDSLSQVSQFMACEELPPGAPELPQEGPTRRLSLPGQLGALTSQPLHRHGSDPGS

SMILES: Cc1ccc(-n2nnnc2CNC(=O)Nc2ccccc2)cc1C
- EC50 [1]: 100 µM

SMILES: Cc1ccc(-n2nnnc2CNC(=O)NC2CCCCC2)cc1C
- EC50 [1]: 100 µM

SMILES: Cc1nc(CNC(=O)NCc2ncnn2-c2ccc3cccnc3c2)n(-c2ccc(Cl)c(F)c2)n1
- inhibition at 10 µM [3]: 17%
- half-life [4]: 2.4 h
- solubility [5]: 59 µM (≈ 29 µg/mL)
- inhibition (INH) [6]: Not Active
- AUC [7]: 2.9 µM·h
- Activity [8]: Non-Toxic
- Papp A→B [9]: 1.2 ×10⁻⁶ cm/s

Second part, the compound after the results:

- EC50 [2]: 58 µM
SMILES: Cc1cnccc1CNC(=O)c1cc(COc2ccc3c(c2)OCO3)[nH]n1

- EC50 [1]: 100 µM
SMILES: O=C(NCc1nnnn1-c1ccc(F)c(F)c1)Nc1cccs1

- EC50 [1]: 100 µM
SMILES: O=C(NCc1nnnn1-c1ccc(Cl)cc1)Nc1cccs1
